The source of these data is patent US7569573B2, “Diketo acids with nucleobase scaffolds: anti-HIV replication inhibitors targeted at HIV integrase” (The University of Georgia Research Foundation, Inc., priority 2005, dated 2009).

Where two headings read alike, the source gives them in different places. Bounds are passed on as bounds.

For data set [1] the following is noted: literature values, same sources as the IC50; cited from earlier work.
The next data set concerns HIV. Description: In vitro anti-HIV activity, PBMC cell-based assay, side by side with AZT. The conditions noted are these: Human immunodeficiency virus 1.
A short description of data set [2]: Cytotoxicity (CC50) in the PBMC cell-based anti-HIV assay.

For `O=C(/C=C(\O)c1nc[nH]n1)c1ccc(Cc2ccc(F)cc2)o1` [Example S-1360], in data set [1], the CC50 is 110 µM.

`O=C(O)C(=O)CC(=O)c1cc(OCc2ccccc2)cc(OCc2ccccc2)c1` [Example L-708906]: in data set [1], the CC50 is 88.3 µM.

Regarding `O=C(O)/C(O)=C/C(=O)c1cn(Cc2ccccc2)c(=O)n(Cc2ccccc2)c1=O`, in the data set with HIV, the IC50 (as a rule, the concentration that inhibits the measured activity by half) was determined as 20 nM. Moreover, the CC50 in data set [2] is above 200 µM.
